{"source": "patent US8058242B2", "about": "“Chimeric proteins with natriuretic activity” (The University of Queensland, priority 2004, dated 2011)", "key": {"[1]": {"system": "rats with chronic heart failure", "test": "Rat model of chronic heart failure, left coronary artery occlusion, anesthetized (Example 10)", "details": "HF rats"}, "[2]": {"test": "Stability assay in human plasma (Example 6)", "type": "in vitro ADME", "details": "24 h at 37° C., read-out: peptide remaining in plasma", "procedure": "Plasma preparation: Blood samples (from healthy human volunteers) were drawn into a sealed tube containing ethylene diamine tetra-acetic acid (EDTA). After sampling, the plasma was separated by centrifugation at 14,000 rpm for 30 min. Plasma was taken out and stored in separated Eppendorf tubes at −20° C.\nStability assay in human and rat plasma: Human or rat plasma (sample size 200 μL) was incubated at 37° C. for 5 min. 50 μL peptide stock solution (5 mg/mL) was added to the plasma. The vortexed reaction mixture was incubated at 37° C. Sample aliquots of 30 μL were taken from the reaction mixture at sequential intervals of 0 h, 1 h, 2 h, 4 h and 24 h and the sample reaction quenched immediately with 30 μL extraction buffer containing 50% Acetonitrile, 50% 0.1 M NaCl and 1% TFA. The quenched aliquots were cooled in ice for 5 min prior to centrifugation at 14,000 rpm for 15 min. 20 μl of the supernatant from each of the centrifuged aliquots was injected into RP-HPLC for analysis."}, "rat GC-A": {"molecular_target": "T1, rat GC-A (Rattus norvegicus, UniProt P18910)", "T1 construct": "expressed in transfected cells", "T1 sequence (P18910 29-1057)": "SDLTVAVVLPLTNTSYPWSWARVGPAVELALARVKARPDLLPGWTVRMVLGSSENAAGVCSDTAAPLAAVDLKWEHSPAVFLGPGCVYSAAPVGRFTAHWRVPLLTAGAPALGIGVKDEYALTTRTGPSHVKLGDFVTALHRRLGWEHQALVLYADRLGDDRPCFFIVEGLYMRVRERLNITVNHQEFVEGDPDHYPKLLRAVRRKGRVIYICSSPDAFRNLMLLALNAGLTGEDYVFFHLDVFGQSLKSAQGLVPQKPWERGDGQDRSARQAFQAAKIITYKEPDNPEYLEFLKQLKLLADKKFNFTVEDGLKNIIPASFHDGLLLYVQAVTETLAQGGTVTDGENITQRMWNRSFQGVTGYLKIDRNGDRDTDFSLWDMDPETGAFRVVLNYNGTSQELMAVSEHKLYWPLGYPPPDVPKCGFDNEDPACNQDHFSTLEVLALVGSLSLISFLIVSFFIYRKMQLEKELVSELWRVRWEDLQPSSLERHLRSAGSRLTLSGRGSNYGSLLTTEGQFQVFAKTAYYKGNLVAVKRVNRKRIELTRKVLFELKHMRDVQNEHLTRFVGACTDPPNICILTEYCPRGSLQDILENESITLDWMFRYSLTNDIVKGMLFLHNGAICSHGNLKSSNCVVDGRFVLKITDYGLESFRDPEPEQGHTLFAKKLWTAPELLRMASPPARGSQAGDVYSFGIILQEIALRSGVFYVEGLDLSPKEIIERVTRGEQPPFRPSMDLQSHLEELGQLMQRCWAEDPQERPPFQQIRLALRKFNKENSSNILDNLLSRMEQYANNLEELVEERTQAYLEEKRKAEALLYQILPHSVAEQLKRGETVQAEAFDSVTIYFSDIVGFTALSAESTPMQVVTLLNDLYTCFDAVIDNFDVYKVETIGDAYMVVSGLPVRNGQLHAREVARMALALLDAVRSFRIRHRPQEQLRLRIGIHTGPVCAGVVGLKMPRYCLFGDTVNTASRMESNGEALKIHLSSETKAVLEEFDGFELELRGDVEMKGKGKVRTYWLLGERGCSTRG", "test": "Cell cyclic GMP elevations in HEK-293 cells stably expressing rat GC-A (Example 4)", "type": "cell-based", "details": "0.1 μM; 293 cells over-expressing GC-A", "from_the_text": "The human embryonic kidney 293 (HEK-293) cell line was used for the stable expression of rat GC-A (GC-A/293). Cells expressing rat GC-A (GC-A/293) in the HEK-293 cell line were as previously described (Potter L. R., and Garbers D. L., (1992), J Biol Chem. 26, 14531-4) and determination of cGMP elevations was undertaken as previously described (Chrisman et al. T. D., Schulz, S., Potter, L. R. and Garbers, D. L., (1993,) J. Biol. Chem. (1993) 268 (5), 3698-3703). Responses were expressed as a percentage of the effect produced by ANP."}, "[3]": {"molecular_target": "Endopeptidase (NEP) (EC 3.4.24.11) (Homo sapiens, UniProt P08473)", "sequence (P08473 whole entry)": "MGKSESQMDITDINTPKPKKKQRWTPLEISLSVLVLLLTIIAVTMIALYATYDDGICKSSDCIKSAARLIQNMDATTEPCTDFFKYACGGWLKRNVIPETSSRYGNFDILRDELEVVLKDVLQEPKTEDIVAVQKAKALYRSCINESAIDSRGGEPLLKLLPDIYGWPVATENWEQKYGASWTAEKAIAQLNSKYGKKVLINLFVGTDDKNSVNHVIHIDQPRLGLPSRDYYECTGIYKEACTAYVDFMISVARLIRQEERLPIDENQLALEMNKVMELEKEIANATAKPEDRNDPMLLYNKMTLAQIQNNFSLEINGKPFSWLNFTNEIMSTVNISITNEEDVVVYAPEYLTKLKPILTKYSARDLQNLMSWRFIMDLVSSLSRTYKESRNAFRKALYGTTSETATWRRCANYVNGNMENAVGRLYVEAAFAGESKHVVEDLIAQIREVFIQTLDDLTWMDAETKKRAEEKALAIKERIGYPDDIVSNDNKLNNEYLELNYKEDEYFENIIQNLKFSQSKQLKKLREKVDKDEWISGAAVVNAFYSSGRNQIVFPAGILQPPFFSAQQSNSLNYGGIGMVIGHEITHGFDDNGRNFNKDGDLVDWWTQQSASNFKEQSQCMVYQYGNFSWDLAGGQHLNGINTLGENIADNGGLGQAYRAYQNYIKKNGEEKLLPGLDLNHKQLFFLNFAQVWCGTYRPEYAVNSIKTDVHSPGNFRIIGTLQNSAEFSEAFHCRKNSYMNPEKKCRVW", "test": "Stability to enzymatic degradation by NEP (Examples 7, 16)", "type": "in vitro ADME", "details": "over the 180 min measurement period, 37° C.", "procedure": "The incubation buffer contained 100 mM Tris/HCl and 150 mM NaCl and the pH was adjusted to 7.2-7.4. In each assay, 100 μl of peptide [500 μM] was incubated with 300 μl buffer (with 500 ng Endopeptidase (NEP) or 10 μg Plasmin) at 37° C. 50 μl aliquots were taken at times 5 min, 30 min, 60 min, 90 min, 180 min and 24 h. The reaction was quenched by heating to 100° C. for 4 min and the remaining peptide concentrations measured by RP-HPLC. Note that the levels of Plasmin required to degrade these peptides was several thousands time the levels present in human plasma.\nThe stability of TDT and was investigated using the same enzymatic degradation assays (NEP, plasmin, pepsin) disclosed in Example 7. […] It is also evident that the increased NEP stability cannot be explained by the length of the tail region alone as the NEP cleavage site residues at the N-terminal end of the loop region."}}, "note": "Positions of bridges follow the written chain, without caps; N, C: chain ends. Residues, ends and D or L forms follow the SMILES beside them.", "data": [{"molecule": "CC[C@H](C)[C@H](NC(=O)[C@H](CCCCN)NC(=O)[C@H](CO)NC(=O)[C@H](CC(=O)O)NC(=O)[C@@H](N)CO)C(=O)NCC(=O)N[C@@H](CC(N)=O)C(=O)NCC(=O)N[C@H]1CSSC[C@@H](C(=O)N[C@@H](CC(N)=O)C(=O)N[C@@H](CCCNC(=N)N)C(=O)N[C@H](C(=O)N[C@@H](CCSC)C(=O)N[C@@H](CCC(N)=O)C(=O)N[C@@H](CC(N)=O)C(=O)N2CCC[C@H]2C(=O)N2CCC[C@H]2C(=O)N[C@@H](CCCCN)C(=O)N[C@@H](CCCCN)C(=O)N[C@@H](Cc2ccccc2)C(=O)N[C@@H](CO)C(=O)NCC(=O)N[C@@H](CCC(=O)O)C(=O)O)[C@@H](C)CC)NC(=O)CNC(=O)[C@H](CC(C)C)NC(=O)CNC(=O)[C@H](CO)NC(=O)[C@H](C(C)C)NC(=O)[C@H](CO)NC(=O)CNC(=O)[C@H]([C@@H](C)CC)NC(=O)[C@H](CCCNC(=N)N)NC(=O)[C@H](CC(=O)O)NC(=O)[C@H](CC(C)C)NC(=O)[C@@H]2CCCN2C(=O)[C@H](Cc2ccccc2)NC(=O)CNC(=O)[C@H](Cc2ccccc2)NC1=O", "note": "[TNPc] (H-SDSKIGNGCFGFPLDRIGSVSGLGCNRIMQNPPKKFSGE-OH; disulfide 9-25)", "values": [{"measurement": "Blood Flow, mean change from control", "setting": "[1]; 50 pmol/kg/min, 30 min", "result": -1.6, "unit": "mL/min"}, {"measurement": "Conductance, mean change from control", "setting": "[1]; 50 pmol/kg/min, 30 min", "result": "−0.2", "unit": "ml/min/mmHg"}, {"measurement": "Diastolic LVP, mean change from control", "setting": "[1]; 50 pmol/kg/min, 30 min", "result": "−0.9", "unit": "mmHg"}, {"measurement": "HCT, mean change from control", "setting": "[1]; 50 pmol/kg/min, 30 min", "result": 1.5, "unit": "%"}, {"measurement": "HR, mean change from control", "setting": "[1]; 50 pmol/kg/min, 30 min", "result": "−5.2", "unit": "bpm"}, {"measurement": "Mean BP, mean change from control", "setting": "[1]; 50 pmol/kg/min, 30 min", "result": "−11.8", "unit": "mmHg"}, {"measurement": "Urine Flow, mean change from control", "setting": "[1]; 50 pmol/kg/min, 30 min", "result": 1.0, "unit": "mL/h"}, {"measurement": "Blood Flow, mean change from control", "setting": "[1]; 100 pmol/kg/min, 30 min", "result": -2.9, "unit": "mL/min"}, {"measurement": "Conductance, mean change from control", "setting": "[1]; 100 pmol/kg/min, 30 min", "result": "−0.4", "unit": "ml/min/mmHg"}, {"measurement": "Diastolic LVP, mean change from control", "setting": "[1]; 100 pmol/kg/min, 30 min", "result": "−1.6", "unit": "mmHg"}, {"measurement": "HCT, mean change from control", "setting": "[1]; 100 pmol/kg/min, 30 min", "result": 2.4, "unit": "%"}, {"measurement": "HR, mean change from control", "setting": "[1]; 100 pmol/kg/min, 30 min", "result": "−14.8", "unit": "bpm"}, {"measurement": "Mean BP, mean change from control", "setting": "[1]; 100 pmol/kg/min, 30 min", "result": "−20.1", "unit": "mmHg"}, {"measurement": "Urine Flow, mean change from control", "setting": "[1]; 100 pmol/kg/min, 30 min", "result": 1.7, "unit": "mL/h"}, {"measurement": "Blood Flow, mean change from control", "setting": "[1]; Recovery", "result": -0.5, "unit": "mL/min"}, {"measurement": "Conductance, mean change from control", "setting": "[1]; Recovery", "result": 0.6, "unit": "ml/min/mmHg"}, {"measurement": "Diastolic LVP, mean change from control", "setting": "[1]; Recovery", "result": "−1.4", "unit": "mmHg"}, {"measurement": "HCT, mean change from control", "setting": "[1]; Recovery", "result": 0.8, "unit": "%"}, {"measurement": "HR, mean change from control", "setting": "[1]; Recovery", "result": "−16.5", "unit": "bpm"}, {"measurement": "Mean BP, mean change from control", "setting": "[1]; Recovery", "result": "−13.6", "unit": "mmHg"}, {"measurement": "Urine Flow, mean change from control", "setting": "[1]; Recovery", "result": 0.9, "unit": "mL/h"}, {"measurement": "Blood Flow, Average drug response SED", "setting": "[1]; average of the two doses", "result": "-2.2 ± 0.5", "unit": "mL/min"}, {"measurement": "Conductance, Average drug response SED", "setting": "[1]; average of the two doses", "result": "−0.3 ± 0.3", "unit": "ml/min/mmHg"}, {"measurement": "Diastolic LVP, Average drug response SED", "setting": "[1]; average of the two doses", "result": "−1.2±0.5", "unit": "mmHg"}, {"measurement": "HCT, Average drug response SED", "setting": "[1]; average of the two doses", "result": "1.9 ± 0.5", "unit": "%"}, {"measurement": "HR, Average drug response SED", "setting": "[1]; average of the two doses", "result": "−10.0 ± 6.9", "unit": "bpm"}, {"measurement": "Mean BP, Average drug response SED", "setting": "[1]; average of the two doses", "result": "−15.9±4.1", "unit": "mmHg"}, {"measurement": "remaining at 24 h, 1 mg/mL", "setting": "[2]", "result": 72, "unit": "%"}, {"measurement": "cGMP elevations, percentage of the effect produced by ANP", "setting": "rat GC-A", "result": "equipotent to ANP and DNP"}, {"measurement": "degradation by NEP", "setting": "[3]", "result": "did not show any degradation"}]}]}
